In assay [1] the target is T1, Sterol O-acyltransferase 1 (Rattus norvegicus, UniProt O70536).
T1 sequence (O70536 whole entry): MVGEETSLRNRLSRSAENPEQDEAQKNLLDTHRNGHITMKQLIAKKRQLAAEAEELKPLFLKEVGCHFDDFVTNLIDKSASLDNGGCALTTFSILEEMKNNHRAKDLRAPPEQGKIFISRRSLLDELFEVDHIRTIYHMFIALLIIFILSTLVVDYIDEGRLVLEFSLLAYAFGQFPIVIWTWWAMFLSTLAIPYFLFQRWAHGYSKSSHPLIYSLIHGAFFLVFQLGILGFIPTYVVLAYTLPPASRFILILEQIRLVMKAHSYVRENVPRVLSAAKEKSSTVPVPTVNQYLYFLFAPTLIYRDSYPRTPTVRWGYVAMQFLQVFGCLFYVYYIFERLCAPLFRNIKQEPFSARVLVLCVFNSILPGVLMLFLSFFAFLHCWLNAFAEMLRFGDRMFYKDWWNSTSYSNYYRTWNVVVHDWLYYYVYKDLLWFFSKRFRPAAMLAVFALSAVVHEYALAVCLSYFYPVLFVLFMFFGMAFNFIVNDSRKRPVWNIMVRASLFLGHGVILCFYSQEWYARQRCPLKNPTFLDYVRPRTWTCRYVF
As to the kind of experiment: In vitro inhibitory activity against acyl coenzyme A:cholesterol acyltransferase 1 in microsomes of rat liver.

Assay [2] deals with T2, Sterol O-acyltransferase 1 (Rattus norvegicus) (UniProt O70536).
T2 sequence (whole entry): T1 sequence (O70536 whole entry)
The assay can be described thus: Chronic in vivo activity was measured by the concentration of high density lipoproteins (HDL) in cholesterol fed rats. Type of assay: functional, organism-based.

The target of assay [3] is T2, Sterol O-acyltransferase 1 (Rattus norvegicus). The assay can be described thus: Chronic in vivo activity was measured by the total cholesterol concentration levels in Cholesterol-Fed Rats. In kind it is functional, organism-based.
Assay [4] has the same target. The assay can be described thus: Acute in vivo activity was measured by the total plasma cholesterol concentration levels(TC) at dose 50 mg/kg. Type of assay: functional, organism-based. More on the design: dose 50 mg/kg.

These results are taken from ChEMBL document CHEMBL1129522, “Inhibitors of acyl-CoA:cholesterol O-acyltransferase. 17. Structure-activity relationships of several series of compounds derived from N-chlorosulfonyl isocyanate” (J Med Chem, 1996).

What is called IC50 is the concentration needed to halve the response being measured. A high value points to weaker potency in that assay. On to `CC(C)c1cccc(C(C)C)c1NS(=O)(=O)NC(=O)Oc1c(C(C)(C)C)cccc1C(C)(C)C`, for which the IC50 in assay [1] amounted to 16.8 µM. The same compound returned a Delta HDL in assay [2] of 200%. Also, the Delta TC was -28% in assay [3] and -57% in assay [4].
The like results for `CC(C)(C)c1cccc(C(C)(C)C)c1OC(=O)NS(=O)(=O)NC(c1ccccc1)c1ccccc1` were, in that order, 11.4 µM, 50%, -46% and -35%.
